Assay results: patent US4861788A, “Antibacterial 1-normon-2-yl-heterocyclic compounds” (Beecham Group plc, priority 1983, dated 1989)
Values after ≈ are worked out from the molar mass of the structure shown. Like-named read-outs stand apart in the source and are kept apart here.

Columns and labels:
[1] = tested on: E. coli E1; assay: MIC against veterinary bacteria in vitro (Diagnostic Sensitivity Test Agar); conditions: Escherichia coli, E1, 18 h
Method: (§2) The activity of the normonyl derivatives of the Examples against various veterinarily important bacteria, was assayed in vitro using two-fold serial dilutions in Diagnostic Sensitivity Test Agar inoculated with 10^4 organisms.

[2] = tested on: Past. multocida PA2; assay: as above; conditions: Pasteurella multocida, PA2, 18 h
Method: as §2

[3] = tested on: Staph. aureus Russell; assay: MIC against human bacteria in vitro (nutrient agar, chocolated horse blood); assay type: cell-based; conditions: Staphylococcus aureus; human; Staph. aureus Russell; 18 hours at 37° C; read-out: MIC
In short: (§1)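 Serial dilutions in nutrient agar plus 5% chocolated horse blood served as the in vitro test system.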

[4] = tested on: Bacillus subtilis 6633; assay: as above; assay type: cell-based; conditions: human; Bacillus subtilis 6633; 18 hours at 37° C; read-out: MIC
In short: as §1

[5] = tested on: Ps. aeruginosa NCTC 10662; assay: as above; assay type: cell-based; conditions: Pseudomonas aeruginosa
In short: as §1

[6] = tested on: Strep. spp. 64/848-C; assay: as above; assay type: cell-based; conditions: human; Strep. spp. 64/848-C; 18 hours at 37° C; read-out: MIC
In short: as §1

[7] = tested on: Strep. agalactiae 2788-B; assay: as above; assay type: cell-based; conditions: Streptococcus agalactiae
In short: as §1

[8] = tested on: Sarcina lutea 8340; assay: as above; assay type: cell-based
In short: as §1

[9] = tested on: Pasteurella multocida 1633; assay: as above; assay type: cell-based; conditions: human; Pasteurella multocida 1633; 18 hours at 37° C; read-out: MIC
In short: as §1

[10] = tested on: Strep. faecalis I; assay: as above; assay type: cell-based; conditions: Enterococcus faecalis
In short: as §1

[11] = tested on: Staph. aureus W2827; assay: as above; assay type: cell-based; conditions: Staphylococcus aureus; human; Staph. aureus W2827; 18 hours at 37° C; read-out: MIC
In short: as §1

[12] = tested on: P. mirabilis 889; assay: as above; assay type: cell-based
In short: as §1

[13] = tested on: E. coli NCTC 10418; assay: as above; assay type: cell-based; conditions: Escherichia coli
In short: as §1

[14] = tested on: M. hyopneumoniae JF 435; assay: MIC against Mycoplasma in vitro (Friis broth with agarose); assay type: cell-based; conditions: Mesomycoplasma hyopneumoniae, JF435, 144 h; M. hyopneumoniae JF 435; 6 days at 37° C; read-out: MIC
[15] = tested on: Staph. aureus 152 (pen. sens); assay: MIC against veterinary bacteria in vitro (Diagnostic Sensitivity Test Agar); conditions: Staphylococcus aureus, 18 h
Method: as §2

[16] = tested on: Erysipelothrix rhusiopathiae NCTC 8163; assay: as above; conditions: NCTC8163, 18 h
Method: as §2

[17] = tested on: M. pneumoniae ATCC 15492; assay: MIC against Mycoplasma in vitro (Friis broth with agarose); assay type: cell-based; conditions: Mycoplasmoides pneumoniae, ATCC15492, 144 h; M. pneumoniae ATCC 15492; 6 days at 37° C; read-out: MIC
[18] = tested on: Strep. uberis SPU1; assay: MIC against veterinary bacteria in vitro (Diagnostic Sensitivity Test Agar); conditions: Streptococcus uberis, SPU1, 18 h
Method: as §2

[19] = tested on: M. bovis NCTC 10131; assay: microbe, parasite or virus in culture; assay type: cell-based; conditions: NCTC10131, 144 h
[20] = tested on: M. hyorhinis ATCC 25021; assay: MIC against Mycoplasma in vitro (Friis broth with agarose); assay type: cell-based; conditions: Mesomycoplasma hyorhinis, ATCC25021, 144 h; M. hyorhinis ATCC 25021; 6 days at 37° C; read-out: MIC
[21] = tested on: M. hyopneumoniae UCD 1; assay: as above; assay type: cell-based; conditions: Mesomycoplasma hyopneumoniae, UCD1, 144 h
[22] = tested on: Bord. bronchiseptica B08; assay: MIC against veterinary bacteria in vitro (Diagnostic Sensitivity Test Agar); conditions: Bordetella bronchiseptica, B08, 18 h
Method: as §2

[23] = tested on: M. gallisepticum S6; assay: MIC against Mycoplasma in vitro (Friis broth with agarose); assay type: cell-based; conditions: Mycoplasmoides gallisepticum, 144 h; M. gallisepticum S6; 6 days at 37° C; read-out: MIC
[24] = tested on: M. hyopneumoniae Str. 11; assay: as above; assay type: cell-based; conditions: Mesomycoplasma hyopneumoniae
[25] = tested on: Past. multocida PA1; assay: MIC against veterinary bacteria in vitro (Diagnostic Sensitivity Test Agar); conditions: Pasteurella multocida, PA1, 18 h
Method: as §2

[26] = tested on: M. hyopneumoniae J2206/183^b; assay: MIC against Mycoplasma in vitro (Friis broth with agarose); assay type: cell-based; conditions: Mesomycoplasma hyopneumoniae, 144 h; M. hyopneumoniae J2206/183^b; 6 days at 37° C; read-out: MIC
[27] = tested on: M. hyorhinis ATCC 23234; assay: as above; assay type: cell-based; conditions: Mesomycoplasma hyorhinis, ATCC23234, 144 h; M. hyorhinis ATCC 23234; 6 days at 37° C; read-out: MIC
[28] = tested on: M. hyopneumoniae NCTC 101101; assay: as above; assay type: cell-based; conditions: Mesomycoplasma hyopneumoniae, NCTC101101, 144 h
[29] = tested on: M. hyopneumoniae MS 16; assay: as above; assay type: cell-based; conditions: Mesomycoplasma hyopneumoniae, MS16, 144 h; M. hyopneumoniae MS 16; 6 days at 37° C; read-out: MIC
[30] = tested on: Corynebacterium pyogenes CY1; assay: MIC against veterinary bacteria in vitro (Diagnostic Sensitivity Test Agar); conditions: CY1, 18 h
Method: as §2

[31] = tested on: M. hyopneumoniae ATCC 25095; assay: MIC against Mycoplasma in vitro (Friis broth with agarose); assay type: cell-based; conditions: Mesomycoplasma hyopneumoniae, ATCC25095, 144 h; M. hyopneumoniae ATCC 25095; 6 days at 37° C; read-out: MIC
[32] = NCTC10662, human, Ps. aeruginosa NCTC 10662, 18 hours at 37° C, read-out: MIC
[33] = human, Strep. agalactiae 2788-B, 18 hours at 37° C, read-out: MIC
[34] = Micrococcus luteus, human, Sarcina lutea 8340, 18 hours at 37° C, read-out: MIC
[35] = human, Strep. faecalis I, 18 hours at 37° C, read-out: MIC
[36] = Proteus mirabilis, human, P. mirabilis 889, 18 hours at 37° C, read-out: MIC
[37] = NCTC10418, human, E. coli NCTC 10418, 18 hours at 37° C, read-out: MIC
[38] = M. hyopneumoniae UCD 1, 6 days at 37° C, read-out: MIC
[39] = 144 h, M. hyopneumoniae Str. 11, 6 days at 37° C, read-out: MIC
[40] = M. hyopneumoniae NCTC 101101, 6 days at 37° C, read-out: MIC

Row | Structure (SMILES) | MIC [1] | MIC [2] | MIC [3] | MIC [4] | MIC [6] | MIC [9] | MIC [11] | MIC [14] | MIC [15] | MIC [16] | MIC [17] | MIC [18] | MIC [19] | MIC [20] | MIC [22] | MIC [23] | MIC [25] | MIC [26] | MIC [27] | MIC [29] | other results
1 | CC(=Cc1nnnn1Cc1ccc([N+](=O)[O-])cc1)CC1OCC(CC2OC2C(C)C(C)O)C(O)C1O (stereo not shown) [Example 12, 1-(p-Nitrobenzyl)-5-(1-normon-2-yl)tetrazole A] | > 80 µg/mL | > 80 µg/mL | ≥ 100 µg/mL | 100 µg/mL (≈ 199 µM) | 100 µg/mL (≈ 199 µM) | 5 µg/mL (≈ 9.93 µM) | 100 µg/mL (≈ 199 µM) | 5 µg/mL (≈ 9.93 µM) | > 80 µg/mL | > 80 µg/mL | > 10 µg/mL | 80 µg/mL (≈ 159 µM) | 0.1 µg/mL (≈ 0.199 µM) | 2.5 µg/mL (≈ 4.96 µM) | > 80 µg/mL | > 10 µg/mL | > 80 µg/mL | 5 µg/mL (≈ 9.93 µM) | 5 µg/mL (≈ 9.93 µM) | 2.5 µg/mL (≈ 4.96 µM) | MIC [5, 32]: > 100 µg/mL; MIC [7, 33]: 50 µg/mL (≈ 99.3 µM); MIC [8, 34]: ≥ 100 µg/mL; MIC [10, 35]: > 100 µg/mL; MIC [12, 36]: > 100 µg/mL; MIC [13, 37]: > 100 µg/mL; MIC [21, 38]: 5 µg/mL (≈ 9.93 µM); MIC [24, 39]: 2.5 µg/mL (≈ 4.96 µM); MIC [28, 40]: 5 µg/mL (≈ 9.93 µM); MIC [30]: > 80 µg/mL; MIC [31]: 5 µg/mL (≈ 9.93 µM)
2 | CC(=Cc1nnc(-c2ccccc2)o1)CC1OCC(CC2OC2C(C)C(C)O)C(O)C1O (stereo not shown) [Example 1, 2-(1-Normon-2-yl)-5-phenyl-1,3,4-oxadiazole A] | > 80 µg/mL | 1.25 µg/mL (≈ 2.81 µM) | 25 µg/mL (≈ 56.2 µM) | 5 µg/mL (≈ 11.2 µM) | 25 µg/mL (≈ 56.2 µM) | 2.5 µg/mL (≈ 5.62 µM) | 25 µg/mL (≈ 56.2 µM) | 5 µg/mL (≈ 11.2 µM) | 5 µg/mL (≈ 11.2 µM) | 80 µg/mL (≈ 180 µM) | > 10 µg/mL | 5 µg/mL (≈ 11.2 µM) | 0.05 µg/mL (≈ 0.112 µM) | 1 µg/mL (≈ 2.25 µM) | > 80 µg/mL | > 10 µg/mL | 10 µg/mL (≈ 22.5 µM) | 5 µg/mL (≈ 11.2 µM) | 2.5 µg/mL (≈ 5.62 µM) | 2.5 µg/mL (≈ 5.62 µM) | MIC ([5]; NCTC10662, 18 h): > 100 µg/mL; MIC ([7]; 2788B, 18 h): 100 µg/mL (≈ 225 µM); MIC ([8]; Micrococcus luteus, 8340, 18 h): > 100 µg/mL; MIC ([10]; 18 h): > 100 µg/mL; MIC ([12]; Proteus mirabilis, 889, 18 h): > 100 µg/mL; MIC ([13]; NCTC10418, 18 h): > 100 µg/mL; MIC [21, 38]: 5 µg/mL (≈ 11.2 µM); MIC [24, 39]: 2.5 µg/mL (≈ 5.62 µM); MIC [28, 40]: 5 µg/mL (≈ 11.2 µM); MIC [30]: > 80 µg/mL; MIC [31]: 2.5 µg/mL (≈ 5.62 µM)
3 | CC(=Cc1nnc(-c2cccnc2)o1)CC1OCC(CC2OC2C(C)C(C)O)C(O)C1O (stereo not shown) [Example 5, 2-(1-Normon-2-yl)-5-(3-pyridyl)-1,3,4-oxadiazole A] | > 80 µg/mL | 1.25 µg/mL (≈ 2.81 µM) | 32 µg/mL (≈ 71.8 µM) | 4 µg/mL (≈ 8.98 µM) | 32 µg/mL (≈ 71.8 µM) | 1 µg/mL (≈ 2.24 µM) | 32 µg/mL (≈ 71.8 µM) | 2.5 µg/mL (≈ 5.61 µM) | 10 µg/mL (≈ 22.4 µM) | 80 µg/mL (≈ 180 µM) | > 10 µg/mL | 2.5 µg/mL (≈ 5.61 µM) | 0.025 µg/mL (≈ 0.0561 µM) | 1 µg/mL (≈ 2.24 µM) | > 80 µg/mL | > 10 µg/mL | 1.25 µg/mL (≈ 2.81 µM) | 2.5 µg/mL (≈ 5.61 µM) | 1 µg/mL (≈ 2.24 µM) | 1 µg/mL (≈ 2.24 µM) | MIC [5, 32]: > 128 µg/mL; MIC [7, 33]: 32 µg/mL (≈ 71.8 µM); MIC [8, 34]: > 128 µg/mL; MIC [10, 35]: > 128 µg/mL; MIC [12, 36]: > 128 µg/mL; MIC [13, 37]: > 128 µg/mL; MIC [21]: 2.5 µg/mL (≈ 5.61 µM); MIC [24, 39]: 1 µg/mL (≈ 2.24 µM); MIC [28, 40]: 2.5 µg/mL (≈ 5.61 µM); MIC [30]: > 80 µg/mL; MIC [31]: 1 µg/mL (≈ 2.24 µM)
4 | CC(=Cc1nnc(-c2cccc(C#N)c2)o1)CC1OCC(CC2OC2C(C)C(C)O)C(O)C1O (stereo not shown) [Example 11, 2-(m-Cyanophenyl)-5-(1-normon-2-yl)-1,3,4-oxadiazole A] | > 80 µg/mL | 0.312 µg/mL (≈ 0.664 µM) | 32 µg/mL (≈ 68.2 µM) | 2 µg/mL (≈ 4.26 µM) | 2 µg/mL (≈ 4.26 µM) | 2 µg/mL (≈ 4.26 µM) | 16 µg/mL (≈ 34.1 µM) | 0.25 µg/mL (≈ 0.532 µM) | 20 µg/mL (≈ 42.6 µM) | 40 µg/mL (≈ 85.2 µM) | > 10 µg/mL | 2.5 µg/mL (≈ 5.32 µM) | 0.05 µg/mL (≈ 0.106 µM) | 0.1 µg/mL (≈ 0.213 µM) | > 80 µg/mL | > 10 µg/mL | 2.5 µg/mL (≈ 5.32 µM) | 0.25 µg/mL (≈ 0.532 µM) | 0.1 µg/mL (≈ 0.213 µM) | 0.1 µg/mL (≈ 0.213 µM) | MIC [5, 32]: > 64 µg/mL; MIC [7, 33]: 2 µg/mL (≈ 4.26 µM); MIC [8, 34]: > 64 µg/mL; MIC [10, 35]: > 64 µg/mL; MIC [12, 36]: > 64 µg/mL; MIC [13, 37]: > 64 µg/mL; MIC [21]: 0.25 µg/mL (≈ 0.532 µM); MIC ([24]; STR.11, 144 h): 0.25 µg/mL (≈ 0.532 µM); MIC [28]: 0.25 µg/mL (≈ 0.532 µM); MIC [30]: > 80 µg/mL; MIC [31]: 0.25 µg/mL (≈ 0.532 µM)
